The term IC50 denotes the concentration needed to halve the response being measured.

The test system of one assay is mouse leukemic cells L1210.
Assay: not given
Conditions: earlier work, U.S. Pat. No. 4,966,918; cited from earlier work.
In the case of `Cc1cc(O)c2c(c1)C(=O)c1cccc(O)c1C2=O` [Compound 1A, chrysophanol], the “activity against mouse leukemic cells L1210 in tissue culture” value (from here on “activity”) is “practically inactive”. On to `O=C1c2cccc(O)c2C(=O)c2c(O)cc(CN(CCCl)CCCl)cc21` [Compound 3A, 3-[N,N-bis(2-chloroethyl)-amino]methyl-1,8-dihydroxy-9,10-anthraquinone], for which the “activity” value is “potent inhibitory activity”. For the compound `Cc1cc(O)c2c(c1)C(=O)c1cc(O)cc(O)c1C2=O` [Compound 1B, emodin], the “activity” value was “practically inactive”. Consider `COc1cc(O)c2c(c1)C(=O)c1cc(CN(CCCl)CCCl)cc(O)c1C2=O` [Compound 3B], for which the “activity” value was “potent inhibitory activity”.

The subject of another assay is L1210 cells. Put plainly: In vivo antileukemic effect (increased life span) in female BDF1 mice inoculated with L1210 cells. Conditions: 100 mg/kg; mice inoculated with 1.0×10^6 L1210 cells. Here is the method: On the other hand, the corresponding methyl carbamate ester IVc gave good ILS values of 71% and >250% at the dose levels of 100 and 200 mg/kg, respectively.
Turning to `CNC(=O)OCc1cccc(Nc2c3ccccc3nc3ccccc23)c1` [IVc, 9-[3'-(Methylaminocarbonyloxymethyl)anilino]acridine], the “ILS (increased life span)” value was found to be 71%.

The assay is the same for the next values; noted with them: 200 mg/kg; mice inoculated with 1.0×10^6 L1210 cells.
With `CNC(=O)OCc1cccc(Nc2c3ccccc3nc3ccccc23)c1` [IVc, 9-[3'-(Methylaminocarbonyloxymethyl)anilino]acridine], the “ILS (increased life span)” value is recorded as over 250%.

Still in this assay, the particulars now being: 100 and 150 mg/kg dose level; female BDF1 mice inoculated with 1.0×10^6 L1210 cells.
On to `OCc1ccc(Nc2c3ccccc3nc3ccccc23)cc1` [IIIc, 9-(4'-Hydroxymethyl)anilinoacridine], for which the “ILS (increased life span)” value amounted to 29%.

For the next assay, the system named is mouse leukemia L1210 cells. Put plainly: Inhibitory activity against growth of mouse leukemia L1210 cells in vitro. Format: cell-based. Conditions: Mus musculus, L1210; quoted in text from Table 6; read-out: IC50 value.
As for `OCc1ccc(Nc2c3ccccc3nc3ccccc23)cc1` [IIIc, 9-(4'-Hydroxymethyl)anilinoacridine], the IC50 was determined as 95 nM.

The same assay, now with this note: Table 6, acridine derivatives of formula III, growth of mouse leukemia L1210 cells; read-out: IC50.
For the compound `Cc1ccc2nc3ccccc3c(Nc3cccc(CO)c3)c2c1` [IIIg, 9-(3'-Hydroxymethyl)anilino-2-methylacridine], the IC50 turned out to be 850 nM. Turning to `OCc1ccccc1Nc1c2ccccc2nc2ccccc12` [IIIa, 9-(2'-Hydroxymethyl)anilinoacridine], the IC50 was found to be 43000 nM.

With `COc1ccc2nc3ccc(OC)cc3c(Nc3ccc(CCO)cc3)c2c1` [IIIw], the IC50 was determined as 690 nM. On the same count and under the same terms, then `OCCc1ccc(Nc2c3ccccc3nc3ccccc23)cc1` [IIIf], with 9.9 nM. As for `COc1ccc2nc3cc(C)ccc3c(Nc3ccc(CO)cc3)c2c1` [IIIt, 9-(4'-Hydroxymethyl)anilino-2-methoxy-6-methylacridine], the IC50 came out at 650 nM. On the same count and under the same terms, then `Cc1ccc2nc3ccccc3c(Nc3ccc(CO)cc3)c2c1` [IIIo, 9-(4'-Hydroxymethyl)anilino-2-methylacridine], with 120 nM; and `OCCc1cccc(Nc2c3ccccc3nc3ccccc23)c1` [IIIe], with 6.2 nM; and `Cc1ccc2c(Nc3cccc(CO)c3)c3ccccc3nc2c1` [IIIh, 9-(3'-Hydroxymethyl)anilino-3-methylacridine], with 0.39 nM. Turning to `OCCc1ccccc1Nc1c2ccccc2nc2ccccc12` [IIId], the IC50 came out at 6500 nM. Same read-out and setting: then `COc1ccc2nc3ccccc3c(Nc3cccc(CO)c3)c2c1` [IIIi, 9-(3'-Hydroxymethyl)anilino-2-methoxyacridine], with 3500 nM. Still for that read-out and setting: next, `COc1ccc2nc3ccc(OC)cc3c(Nc3ccc(CO)cc3)c2c1` [IIIu, 9-(4'-Hydroxymethyl)anilino-2,7-dimethoxyacridine]: 3400 nM. Consider `OCc1cccc(Nc2c3ccccc3nc3ccccc23)c1` [IIIb, 9-(3'-Hydroxymethyl)anilinoacridine], for which the IC50 was 14 nM. Still for that read-out and setting: then `COc1ccc2nc3cc(C)ccc3c(Nc3cccc(CO)c3)c2c1` [IIIl, 9-(3'-Hydroxymethyl)anilino-2-methoxy-6-methylacridine], with 920 nM; and `COc1ccc2nc3ccccc3c(Nc3ccc(CO)cc3)c2c1` [IIIq, 9-(4'-Hydroxymethyl)anilino-2-methoxyacridine], with 620 nM. Same read-out and setting: next, `COc1ccc2c(Nc3ccc(CO)cc3)c3ccccc3nc2c1` [IIIr, 9-(4'-Hydroxymethyl)anilino-3-methoxyacridine]: 29 nM. On the same count and under the same terms, then `COc1ccc2c(Nc3cccc(CO)c3)c3ccccc3nc2c1` [IIIj, 9-(3'-Hydroxymethyl)anilino-3-methoxyacridine], with 0.063 nM; and `COc1ccc2c(Nc3cccc(CCO)c3)c3ccccc3nc2c1` [IIIn, 9-[3'-(β-hydroxyethyl)anilino]-3-methoxyacridine], with 0.023 nM; and `COc1ccc2nc3ccc(C)cc3c(Nc3ccc(CO)cc3)c2c1` [IIIs, 9-(4'-Hydroxymethyl)anilino-2-methoxy-7-methylacridine], with 58 nM. As to `Cc1ccc2c(Nc3ccc(CO)cc3)c3ccccc3nc2c1` [IIIp, 9-(4'-Hydroxymethyl)anilino-3-methylacridine], the IC50 turned out to be 6.7 nM.

For the compound `COc1ccc2nc3ccc(C)cc3c(Nc3cccc(CO)c3)c2c1` [IIIk, 9-(3'-Hydroxymethyl)anilino-2-methoxy-7-methylacridine], the IC50 was 5800 nM.

With `COc1ccc2c(Nc3ccc(CCO)cc3)c3ccccc3nc2c1` [IIIv], the IC50 stood at 18 nM. Same read-out and setting: then `OCc1ccc(Nc2c3ccccc3nc3ccccc23)cc1` [IIIc, 9-(4'-Hydroxymethyl)anilinoacridine], with 95 nM. On the same count and under the same terms, next, `COc1ccc2nc3ccc(OC)cc3c(Nc3cccc(CO)c3)c2c1` [IIIm, 9-(3'-Hydroxymethyl)anilino-2,7-dimethoxyacridine]: 3400 nM.

The assay is the same for the next values; noted with them: Table 7, carbamate esters of formula IV, mouse L1210 cells in vitro; read-out: IC50.
Turning to `CC(C)NC(=O)OCCc1ccc(Nc2c3ccccc3nc3ccccc23)cc1` [IVj, 9-[4'-(β-Isopropylaminocarbonyloxyethyl)anilino]acridine], the IC50 worked out at 48 nM. On the same count and under the same terms, next, `CNC(=O)OCc1cccc(Nc2c3ccccc3nc3cc(OC)ccc23)c1` [IVk, 9-[3'-(Methylaminocarbonyloxymethyl)anilino]-3-methoxyacridine]: 1700 nM; `COc1ccc2nc3ccc(OC)cc3c(Nc3ccc(COC(=O)NC(C)C)cc3)c2c1` [IVp, 9-[4'-(Isopropylaminocarbonyloxymethyl)anilino]-2,7-dimethoxyacridine]: 6600 nM; `COc1ccc2c(Nc3cccc(COC(=O)NC(C)C)c3)c3ccccc3nc2c1` [IVl, 9-[3'-(Isopropylaminocarbonyloxymethyl)anilino]-3-methoxyacridine]: 890 nM. The same measure, in the same setting: then `CNC(=O)OCCc1ccc(Nc2c3ccccc3nc3ccccc23)cc1` [IVi, 9-[4'-(β-Methylaminocarbonyloxyethyl)anilino]acridine], with 3.9 nM; and `CC(C)NC(=O)OCCc1cccc(Nc2c3ccccc3nc3ccccc23)c1` [IVh, 9-[3'-(β-Isopropylaminocarbonyloxyethyl)anilino]acridine], with 0.91 nM; and `CC(C)NC(=O)OCc1ccccc1Nc1c2ccccc2nc2ccccc12` [IVb, 9-[2'-(Isopropylaminocarbonyloxymethyl)anilino]acridine], with 9300 nM.

For `CNC(=O)OCc1ccccc1Nc1c2ccccc2nc2ccccc12` [IVa, 9-[2'-(Methylaminocarbonyloxymethyl)anilino]acridine], the 50% inhibitory concentration (IC50) was 8400 nM. Still for that read-out and setting: next, `CC(C)NC(=O)OCc1ccc(Nc2c3ccccc3nc3ccccc23)cc1` [IVf, 9-[4'-(Isopropylaminocarbonyloxymethyl)anilino]acridine]: 18 nM. Take `CNC(=O)OCc1cccc(Nc2c3cc(OC)ccc3nc3ccc(OC)cc23)c1` [IVm, 9-[3'-(Methylaminocarbonyloxymethyl)anilino]-2,7-dimethoxyacridine]: the IC50 amounted to 5000 nM.

On to `CNC(=O)OCc1cccc(Nc2c3ccccc3nc3ccccc23)c1` [IVc, 9-[3'-(Methylaminocarbonyloxymethyl)anilino]acridine], for which the IC50 amounted to 4600 nM. The same measure, in the same setting: then `COc1ccc2nc3ccc(OC)cc3c(Nc3cccc(COC(=O)NC(C)C)c3)c2c1` [IVn, 9-[3'-(isopropylaminocarbonyloxymethyl)-anilino]-2,7-dimethoxyacridine], with 4000 nM; and `CC(C)NC(=O)OCc1cccc(Nc2c3ccccc3nc3ccccc23)c1` [IVd, 9-[3'-(Isopropylaminocarbonyloxymethyl)anilino]acridine], with 9.1 nM.

In the case of `CNC(=O)OCc1ccc(Nc2c3cc(OC)ccc3nc3ccc(OC)cc23)cc1` [IVo, 9-[4'-(Methylaminocarbonyloxymethyl)anilino]-2,7-dimethoxyacridine], the IC50 was found to be 3600 nM. Same read-out and setting: next, `CNC(=O)OCc1ccc(Nc2c3ccccc3nc3ccccc23)cc1` [IVe, 9-[4'-(Methylaminocarbonyloxymethyl)anilino]acridine]: 38 nM; `CNC(=O)OCCc1cccc(Nc2c3ccccc3nc3ccccc23)c1` [IVg, 9-[3'-(β-Methylaminocarbonyloxyethyl)anilino]acridine]: 5700 nM.

For a further assay, the system named is DNA.
Assay: not given
Conditions: Denny and Wakelin, Cancer Res., 46:1717 (1986); cited from earlier work.
In the case of `COc1cc(NS(C)(=O)=O)ccc1Nc1c2ccccc2nc2ccccc12` [amsacrin], the “intercalation into DNA” value is “reversible”.

Another assay concerns topoisomerse II.
Assay: not given
Particulars: Nelson et al. 1984; Pommier et al. 1984; cited from earlier work.
As for `COc1cc(NS(C)(=O)=O)ccc1Nc1c2ccccc2nc2ccccc12` [amsacrin], the “DNA cleavage mediated by topoisomerse II” value is on record as “appears to induce DNA cleavage”.

(Values after patent US5229395A, “Potential anticancer agents derived from acridine” (Sloan-Kettering Institute For Cancer Research, priority 1991, dated 1993).)
